Key:
MAPK p38 phosphorylation = experiment: MAPK p38 Activation Assay (western blot), Panc-1; format: cell-based, human; details: at 10 μM, Panc-1 pancreatic cancer cell line; starred symbols = activation
Experimental: Protocol for MAPK p38 Activation Assay
This assay is referred to as the “MAPK p38 Activation Assay” throughout this application.
Cell lines: Human tumor-derived pancreatic cancer cell line Panc-1 (expressing KRas G12D mutant) was purchased from American Type Culture Collection and grown in complete DMEM-High Glucose medium, supplemented with penicillin (100 U/mL), streptomycin (100 μg/mL), and 10% heat-inactivated FBS at 37° C. in a humidified incubator with 5% CO2.
Method 1: Cells were plated at 350000 cells/well density in a 12-well plate, allowed 3 hours to adhere to the plate, then starved in the appropriate medium in the presence of 0.5% FBS overnight. The small molecules to be tested were added to the cells in the final concentration of 10 μM in the presence of 0.3% DMSO for 6 hours incubation at 37° C. For IC50 value determination, serial dilutions of compounds were added to cells under the same conditions. Next, cells were stimulated with 1.5 ng/ml EGF for 15 minutes then cells were lysed with lysis buffer containing 1% Triton X-100, EDTA, and Halt™ Protease & Phosphatase Inhibitor Cocktail (Thermo Scientific). Protein concentration was assessed by BCA protein assay (Thermo Scientific). Phosphorylation level of MAPK p38 was determined by western blot.
Method 2: Cells were plated at 350000 cells/well density in a 12-well plate in 10% FBS. The next day small molecules to be tested were added to the cells in the final concentration of 10 μM in the presence of 0.3% DMSO for 6 hours incubation at 37° C. For IC50 value determination, serial dilutions of compounds were added to cells under the same conditions. Next, cells were lysed with lysis buffer containing 1% Triton X-100, EDTA, and Halt™ Protease & Phosphatase Inhibitor Cocktail (Thermo Scientific). Protein concentration was assessed by BCA protein assay (Thermo Scientific). Phosphorylation level of MAPK p38 was determined by western blot.
Western blot protocol: Equal amounts of protein (15-50 μg) were separated by SDS-PAGE and transferred to nitrocellulose membranes (Invitrogen by Thermo Fisher Scientific). The membrane was stained with Ponceau S Stain (Boston BioProducts) to verify uniform protein loading. Membranes were blocked with 10% milk and phosphorylation levels of MAPK p38 were assessed by incubating overnight at 4° C. with the following antibody: Phospho-p38 MAPK (Thr180/Tyr182), from Cell Signaling Technology. Then the membranes were incubated with HRP-conjugated secondary antibody (Jackson Immunoresearch, West Grove, PA). Bands were incubated in Amersham ECL Prime Western Blotting Detection Reagent (GE Healthcare) and visualized using the ChemiDoc MP imaging system (Bio-Rad).

TNF-alpha = TNF-alpha Quantification Assay (ELISA), LPS-stimulated RAW 264.7; format: cell-based; details: Mus musculus, RAW264.7; at 10 μM; read-out: TNFα: % inh.
Rac-1 = biological target: T1, Rac-1 (Homo sapiens, UniProt P63000); experiment: Ras GTP Binding Domain Inhibition Assay (Ras Superfamily Assay); details: read-out: Rac-1: % inh.
T1 construct: made in house
Method in brief: (§1)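 His-tagged GTPases immobilised on nickel-coated plates, pre-incubated with compound (20 μM single point, or serial dilution for IC50) 3 h at room temperature, with or without 10-30 μg/mL Sos (residues 556-1049) in the final hour. Bound Cy3- or Cy5-GTP (100 nM, 45 min) measured by fluorescence after washing.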

KRas G12D mutant = experiment: as above; details: for KRas G12D mutant + SOS: % inh.: with SOS; for KRas G12D mutant: % inh.: without SOS
Method in brief: as §1

KRas wild type = experiment: as above; details: for KRas wild type + SOS: % inh.: with SOS; for KRas wild type: % inh.: without SOS
Method in brief: as §1

Structure (SMILES) | % inh of MAPK p38 in Panc-1 (MAPK p38 phosphorylation) | inhibition at 10 µM (TNF-alpha) [%] | inhibition at 20 µM (Rac-1) [%] | KRas G12D mutant + SOS: % inh. (KRas G12D mutant; at 20 μM) | KRas G12D mutant: % inh. (KRas G12D mutant; at 20 μM) | KRas wild type + SOS: % inh. (KRas wild type; at 20 μM) | KRas wild type: % inh. (KRas wild type; at 20 μM) | KRas G12D mutant + SOS: % inh. (KRas G12D mutant; 20 μM compound) | KRas G12D mutant: % inh. (KRas G12D mutant; 20 μM compound) | KRas wild type + SOS: % inh. (KRas wild type; 20 μM compound) | KRas wild type: % inh. (KRas wild type; 20 μM compound)
COCCCS(=O)(=O)Nc1nc(-c2nccn2C)nn2cc(-c3ccccc3)c(-c3ccccc3)c12 [Compound 213, 3-Methoxy-N-(2-(1-methyl-1H-imidazol-2-yl)-5,6-diphenylpyrrolo[2,1-f][1,2,4]triazin-4-yl)propane-1-sulfonamide] | F (F = 31-74% inhibition) | 0 | 50 to 75 | D (D = 76-100% inhibition) | D (D = 76-100% inhibition) | D (D = 76-100% inhibition) | D (D = 76-100% inhibition) | – | – | – | –
CO[C@H]1C[C@H](S(=O)(=O)Nc2nc(-c3nccn3C)nn3cc(-c4ccccc4)c(-c4ccccc4)c23)C1 [Compound 214, (1r,3r)-3-Methoxy-N-(2-(1-methyl-1H-imidazol-2-yl)-5,6-diphenylpyrrolo[2,1-f][1,2,4]triazin-4-yl)cyclobutane-1-sulfonamide] | G (G = 75-99% inhibition) | 0 | 50 to 75 | C (C = 50-75% inhibition) | C (C = 50-75% inhibition) | C (C = 50-75% inhibition) | C (C = 50-75% inhibition) | – | – | – | –
CO[C@H]1C[C@H](Nc2nc(-c3nccn3C)nn3cc(-c4ccc(CN)cc4)c(-c4ccccc4)c23)C1.Cl [Compound 206, 6-(4-(Aminomethyl)phenyl)-N-((1r,3r)-3-methoxycyclobutyl)-2-(1-methyl-1H-imidazol-2-yl)-5-phenylpyrrolo[2,1-f][1,2,4]triazin-4-amine hydrochloride salt] | E (E = 1-30% inhibition) | 1 to 24 | 1 to 25 | A (A = 1-25% inhibition) | A (A = 1-25% inhibition) | A (A = 1-25% inhibition) | A (A = 1-25% inhibition) | – | – | – | –
COc1ccnc(Nc2nc(-c3nccn3C)nn3cc(-c4cccnc4)c(-c4ccccc4)c23)c1 [Compound 196, N-(4-Methoxypyridin-2-yl)-2-(1-methyl-1H-imidazol-2-yl)-5-phenyl-6-(pyridin-3-yl)pyrrolo[2,1-f][1,2,4]triazin-4-amine] | F (F = 31-74% inhibition) | 75 to 100 | 76 to 100 | D (D = 76-100% inhibition) | D (D = 76-100% inhibition) | D (D = 76-100% inhibition) | D (D = 76-100% inhibition) | – | – | – | –
COC[C@@H]1CC[C@@H]1CNc1nc(-c2ccccn2)nn2cc(-c3ccn(C(C)C)n3)c(C)c12 (racemic) [Compound 11, rac 6-(1-Isopropyl-1H-pyrazol-3-yl)-N-(((1S,2R)-2-(methoxymethyl)cyclobutyl)methyl)-5-methyl-2-(pyridin-2-yl)pyrrolo[2,1-f][1,2,4]triazin-4-amine] | G* (G* = 75-99% activation) | 0 | 0 | – | – | – | – | 0 (0 = 0% inhibition) | A (A = 1-25% inhibition) | 0 (0 = 0% inhibition) | 0 (0 = 0% inhibition)
CO[C@H]1CC[C@H](Nc2nc(-c3nccn3C)nn3cc(-c4ccncc4)c(-c4ccccc4)c23)C1 (racemic) [Compound 201, rac N-((1S,3S)-3-Methoxycyclopentyl)-2-(1-methyl-1H-imidazol-2-yl)-5-phenyl-6-(pyridin-4-yl)pyrrolo[2,1-f][1,2,4]triazin-4-amine] | E (E = 1-30% inhibition) | 50 to 74 | 26 to 49 | B (B = 26-49% inhibition) | B (B = 26-49% inhibition) | B (B = 26-49% inhibition) | A (A = 1-25% inhibition) | – | – | – | –
COCCNc1nc(-c2nccn2C)nn2cc(-c3ccncc3)c(-c3ccccc3)c12 [Compound 202, N-(2-Methoxyethyl)-2-(1-methyl-1H-imidazol-2-yl)-5-phenyl-6-(pyridin-4-yl)pyrrolo[2,1-f][1,2,4]triazin-4-amine] | E (E = 1-30% inhibition) | 1 to 24 | 26 to 49 | C (C = 50-75% inhibition) | C (C = 50-75% inhibition) | C (C = 50-75% inhibition) | B (B = 26-49% inhibition) | – | – | – | –
COc1cc(Nc2nc(-c3ccccn3)nn3cc(-c4ccn(C(C)C)n4)c(C)c23)ncn1 [Compound 13, 6-(1-Isopropyl-1H-pyrazol-3-yl)-N-(6-methoxypyrimidin-4-yl)-5-methyl-2-(pyridin-2-yl)pyrrolo[2,1-f][1,2,4]triazin-4-amine] | H* (H* ≥ 100% activation) | 0 | 0 | – | – | – | – | 0 (0 = 0% inhibition) | A (A = 1-25% inhibition) | 0 (0 = 0% inhibition) | A (A = 1-25% inhibition)
CO[C@H]1C[C@@H](Nc2nc(-c3nccn3C)nn3cc(-c4cccnc4)c(-c4ccccc4)c23)C1 [Compound 191, N-((1s,3s)-3-Methoxycyclobutyl)-2-(1-methyl-1H-imidazol-2-yl)-5-phenyl-6-(pyridin-3-yl)pyrrolo[2,1-f][1,2,4]triazin-4-amine] | E* (E* = 1-30% activation) | 1 to 24 | 1 to 25 | B (B = 26-49% inhibition) | B (B = 26-49% inhibition) | B (B = 26-49% inhibition) | A (A = 1-25% inhibition) | – | – | – | –
CO[C@H]1C[C@H](Nc2nc(-c3nccn3C)nn3cc(-c4cnccc4C)c(-c4ccccc4)c23)C1 [Compound 218, N-((1r,3r)-3-Methoxycyclobutyl)-2-(1-methyl-1H-imidazol-2-yl)-6-(4-methylpyridin-3-yl)-5-phenylpyrrolo[2,1-f][1,2,4]triazin-4-amine] | F* (F* = 31-74% activation) | 1 to 24 | 1 to 25 | A (A = 1-25% inhibition) | A (A = 1-25% inhibition) | A (A = 1-25% inhibition) | A (A = 1-25% inhibition) | – | – | – | –
CO[C@H]1C[C@@H](Nc2nc(-c3nccn3C)nn3cc(-c4ccncc4)c(-c4ccccc4)c23)C1 [Compound 198, N-((1s,3s)-3-Methoxycyclobutyl)-2-(1-methyl-1H-imidazol-2-yl)-5-phenyl-6-(pyridin-4-yl)pyrrolo[2,1-f][1,2,4]triazin-4-amine] | E (E = 1-30% inhibition) | 25 to 49 | 26 to 49 | B (B = 26-49% inhibition) | B (B = 26-49% inhibition) | B (B = 26-49% inhibition) | A (A = 1-25% inhibition) | – | – | – | –

— patent US12459951B2, “Compounds that interact with RAS superfamily proteins for treatment of cancers, inflammatory diseases, rasopathies, and fibrotic disease” (SHY Therapeutics, LLC, priority 2022, dated 2025)
